This passage reports Activity results from ChEMBL document CHEMBL1146401, “A bioactive seco-rosane diterpenoid from Vellozia candida” (1997).

Some results are limits rather than exact numbers.

The subject of test [1] is Saccharomyces cerevisiae. Nature of the test: DNA damaging activity against DNA repair-deficient Saccharomyces cerevisiae RS 322YK (rad 52Y) mutant assessed as drug level required to produce 12 mm zone of inhibition after 48 hrs. The class given is functional.
For test [2], the system named is Saccharomyces cerevisiae. Briefly: DNA damaging activity against DNA […] Saccharomyces cerevisiae RS 188N (RAD+) mutant assessed as drug level required to produce 12 mm zone of inhibition after 48 hrs. The class given is functional.

Turning to `C=C[C@@]1(C)C[C@@H]2OC(=O)C3=C(CCCC3(C)C)[C@@]2(C)[C@H](C(=O)O)C1` [CANDIDALACTONE], the Activity in test [1] was 87 µg/mL; in test [2], >200 µg/mL.
